Legend:
[1] = test system: Human immunodeficiency virus 1; experiment: Antiviral activity against Human immunodeficiency virus 1 clone 13 harboring integrase S17N, T124N, T125A, G140S, M154I, S195C mutant gene relative to wild type HIV1; type: functional
[2] = test system: Human immunodeficiency virus 1; experiment: Antiviral activity against Human immunodeficiency virus 1 clone 15_7 harboring integrase E11D, S17T, L45V, M50T, I72V, L74I, T97A, K111T, S119G, T125A infected in human MT4 cells assessed as inhibition of virus induced cytopathic effect relative to wild type HIV1; type: functional
[3] = test system: Human immunodeficiency virus 1; experiment: Antiviral activity against Human immunodeficiency virus 1 clone 5 harboring integrase E11D, S17T, S39G, L45V, M50I, I72V, L74I, K111T, S119G, T125A relative to wild type HIV1; type: functional
[4] = test system: Human immunodeficiency virus 1; experiment: Antiviral activity against Human immunodeficiency virus 1 3B harboring integrase K156N mutant infected in human MT4 cells assessed as inhibition of virus induced cytopathic effect relative to wild type HIV1; type: functional
[5] = test system: Human immunodeficiency virus 1; experiment: Antiviral activity against Human immunodeficiency virus 1 clone 15 harboring integrase S17N, I84I, T124N, T125A, M154I, S195C mutant gene relative to wild type HIV1; type: functional
[6] = test system: Human immunodeficiency virus 1; experiment: Antiviral activity against Human immunodeficiency virus 1 3B harboring integrase T66I mutant infected in human MT4 cells assessed as inhibition of virus induced cytopathic effect relative to wild type HIV1; type: functional
[7] = test system: Human immunodeficiency virus 1; experiment: Antiviral activity against Human immunodeficiency virus 1 clone 7 harboring integrase E11D, S17T, L45V, M50T, I72V, L74I, K111T, T125A relative to wild type HIV1; type: functional
[8] = test system: Human immunodeficiency virus 1; experiment: Antiviral activity against Human immunodeficiency virus 1 3B harboring integrase I72V mutant infected in human MT4 cells assessed as inhibition of virus induced cytopathic effect relative to wild type HIV1; type: functional
[9] = test system: Human immunodeficiency virus 1; experiment: Antiviral activity against Human immunodeficiency virus 1 clone 15_19 harboring integrase T97A mutant and T97A, Y143R site-directed mutation relative to wild type HIV1; type: functional
[10] = test system: Human immunodeficiency virus 1; experiment: Antiviral activity against Human immunodeficiency virus 1 3B harboring integrase M154I mutant infected in human MT4 cells assessed as inhibition of virus induced cytopathic effect relative to wild type HIV1; type: functional
[11] = test system: Human immunodeficiency virus 1; experiment: Antiviral activity against Human immunodeficiency virus 1 clone 19 harboring integrase R20K, A23V, G70E, T124N, I141V, G193E, V201I, T206S, I220V mutant gene relative to wild type HIV1; type: functional
[12] = test system: Human immunodeficiency virus 1; experiment: Antiviral activity against Human immunodeficiency virus 1 clone 15_7 harboring integrase T97A mutant and T97A, Y143R site-directed mutation relative to wild type HIV1; type: functional
[13] = test system: Human immunodeficiency virus 1; experiment: Antiviral activity against Human immunodeficiency virus 1 3B harboring integrase G140S mutant infected in human MT4 cells assessed as inhibition of virus induced cytopathic effect relative to wild type HIV1; type: functional
[14] = test system: Human immunodeficiency virus 1; experiment: Antiviral activity against Human immunodeficiency virus 1 3B infected in human MT4 cells assessed as inhibition of virus induced cytopathic effect; type: functional, organism-based
[15] = test system: Human immunodeficiency virus 1; experiment: Antiviral activity against Human immunodeficiency virus 1 clone 15_19 harboring integrase E11D, S17T, L45V, M50T, I72V, L74I, T97A, K111T, S119G, T125A infected in human MT4 cells assessed as inhibition of virus induced cytopathic effect relative to wild type HIV1; type: functional
[16] = test system: Human immunodeficiency virus 1; experiment: Antiviral activity against Human immunodeficiency virus 1 clone 2 harboring integrase S17N, I84I, T124N, T125A, M154I, E157K, S195C mutant gene relative to wild type HIV1; type: functional
[17] = test system: Human immunodeficiency virus 1; experiment: Antiviral activity against Human immunodeficiency virus 1 HXB2 assessed as inhibition of virus induced cytopathic effect relative to wild type HIV1; type: functional
[18] = test system: Human immunodeficiency virus 1; experiment: Antiviral activity against Human immunodeficiency virus 1 3B harboring integrase T97A mutant infected in human MT4 cells assessed as inhibition of virus induced cytopathic effect relative to wild type HIV1; type: functional
[19] = test system: Human immunodeficiency virus 1; experiment: Antiviral activity against Human immunodeficiency virus 1 clone 9 harboring integrase S17N, I84I, T124N, T125A, M154I, A175T, S195C mutant gene relative to wild type HIV1; type: functional
[20] = test system: Human immunodeficiency virus 1; experiment: Antiviral activity against Human immunodeficiency virus 1 3B harboring integrase V165I mutant infected in human MT4 cells assessed as inhibition of virus induced cytopathic effect relative to wild type HIV1; type: functional
[21] = test system: Human immunodeficiency virus 1; experiment: Antiviral activity against Human immunodeficiency virus 1 clone 3 harboring integrase R20K, A23V, T124N, I141V, G193E, V201I, T206S, I220V, M275Vmutant gene relative to wild type HIV1; type: functional
[22] = test system: Human immunodeficiency virus 1; experiment: Antiviral activity against Human immunodeficiency virus 1 clone 17 harboring integrase R20K, A23V, T124N,A129T, I141V, I62T, G193E, V201I, T206S, I220V, D279G mutant gene relative to wild type HIV1; type: functional
[23] = test system: Human immunodeficiency virus 1; experiment: Antiviral activity against Human immunodeficiency virus 1 clone 1 harboring integrase E11D, S17T, L45V, M50I, M50T, I72V, L74I, K111T, S119G, T125A relative to wild type HIV1; type: functional
[24] = test system: Human immunodeficiency virus 1; experiment: Antiviral activity against Human immunodeficiency virus 1 clone 18_13 harboring integrase G140S mutant and G140S, Q148H site-directed mutation relative to wild type HIV1; type: functional
[25] = test system: Human immunodeficiency virus 1; experiment: Antiviral activity against Human immunodeficiency virus 1 clone 3 harboring integrase S17N, I84I, T124N, T125A, M154I, S195C mutant gene relative to wild type HIV1; type: functional
[26] = test system: Human immunodeficiency virus 1; experiment: Antiviral activity against Human immunodeficiency virus 1 3B harboring integrase L68V mutant infected in human MT4 cells assessed as inhibition of virus induced cytopathic effect relative to wild type HIV1; type: functional
[27] = test system: Human immunodeficiency virus 1; experiment: Antiviral activity against Human immunodeficiency virus 1 clone 16 harboring integrase R20K, A23V, M50I, T124N, G193E, V201I, T206S, I220V, D279G mutant gene relative to wild type HIV1; type: functional
[28] = test system: Human immunodeficiency virus 1; experiment: Antiviral activity against Human immunodeficiency virus 1 3B harboring integrase E92G mutant infected in human MT4 cells assessed as inhibition of virus induced cytopathic effect relative to wild type HIV1; type: functional
[29] = test system: Human immunodeficiency virus 1; experiment: Antiviral activity against Human immunodeficiency virus 1 clone 16 harboring integrase E11D, S17T, L45V, M50T, I72V, L74I, K111T, T125A relative to wild type HIV1; type: functional
[30] = test system: Human immunodeficiency virus 1; experiment: Antiviral activity against Human immunodeficiency virus 1 clone 20 harboring integrase E11D, S17T, L45V, M50T, I72V, L74I, K111T, T125A, I217V relative to wild type HIV1; type: functional
[31] = test system: Human immunodeficiency virus 1; experiment: Antiviral activity against Human immunodeficiency virus 1 clone 15_12 harboring integrase Y143R site-directed mutation relative to wild type HIV1; type: functional
[32] = test system: Human immunodeficiency virus 1; experiment: Antiviral activity against Human immunodeficiency virus 1 clone 19 harboring integrase E11D, S17T, L45V, M50T, I72V, L74I, T97A, K111T, S119G, T125A relative to wild type HIV1; type: functional
[33] = test system: Human immunodeficiency virus 1; experiment: Antiviral activity against Human immunodeficiency virus 1 clone 18 harboring integrase S17N, I84I, T124N, T125A, M154I, S195C, V201I, S230G mutant gene relative to wild type HIV1; type: functional

| SMILES | fold change (FC) [1] | fold change (FC) [2] | fold change (FC) [3] | fold change (FC) [4] | fold change (FC) [5] | fold change (FC) [6] | fold change (FC) [7] | fold change (FC) [8] | fold change (FC) [9] | fold change (FC) [10] | fold change (FC) [11] | fold change (FC) [12] | fold change (FC) [13] | EC50 [14] | fold change (FC) [15] | fold change (FC) [16] | fold change (FC) [17] | fold change (FC) [18] | fold change (FC) [19] | fold change (FC) [20] | other results |
| --- | --- | --- | --- | --- | --- | --- | --- | --- | --- | --- | --- | --- | --- | --- | --- | --- | --- | --- | --- | --- | --- |
| COc1cc2c(cc1Cc1cccc(Cl)c1F)c(=O)c(C(=O)O)cn2[C@H](CO)C(C)C [ELVITEGRAVIR] | 5.6 | 2.7 | 0.3 | 0.7 | 0.6 | 10.5 | 2.7 | 0.8 | 9.4 | 1 | 1.1 | 14.6 | 5.6 | 11.6 nM | 2.5 | 1.1 | 1.2 | 2.6 | 1.3 | 0.8 | fold change (FC) [21]: 0.7; fold change (FC) [22]: 0.3; fold change (FC) [23]: 1.4; fold change (FC) [24]: >633.7; fold change (FC) [25]: 0.6; fold change (FC) [26]: 1.1; fold change (FC) [27]: 0.7; fold change (FC) [28]: 13; fold change (FC) [29]: 0.5; fold change (FC) [30]: 1; fold change (FC) [31]: 4.2; fold change (FC) [32]: 2.5; fold change (FC) [33]: 0.8 |
| Cc1nnc(C(=O)NC(C)(C)c2nc(C(=O)NCc3ccc(F)cc3)c(O)c(=O)n2C)o1 [RALTEGRAVIR] | 2.4 | 1.5 | 0.7 | 0.4 | 0.7 | 0.8 | 1.5 | 0.9 | 88.2 | 0.8 | 1.2 | 91.6 | 2.4 | 6.1 nM | 1.7 | 1.1 | 1 | 1.6 | 1.1 | 0.7 | fold change (FC) [21]: 0.5; fold change (FC) [22]: 0.3; fold change (FC) [23]: 1.7; fold change (FC) [24]: 768; fold change (FC) [25]: 0.8; fold change (FC) [26]: 0.4; fold change (FC) [27]: 0.8; fold change (FC) [28]: 1.8; fold change (FC) [29]: 1.2; fold change (FC) [30]: 1.5; fold change (FC) [31]: 13.1; fold change (FC) [32]: 1.7; fold change (FC) [33]: 1.3 |

Reference: ChEMBL document CHEMBL1687760, “Secondary integrase resistance mutations found in HIV-1 minority quasispecies in integrase therapy-naive patients have little or no effect on susceptibility to integrase inhibitors” (Antimicrob Agents Chemother, 2010)
